Where two headings read alike, the source gives them in different places.
Biological target: T1, Autotaxin (Homo sapiens, UniProt Q13822)
T1 construct: from tissue; host or cells: pooled human plasma
Test: LPA formation in pooled human plasma (ex vivo autotaxin inhibition)
Type: biochemical
Conditions: 2 hours incubation
Procedure: Autotaxin is a plasma phosphodiesterase that converts lysophosphatidylcholine (LPC) into lysophosphatidic acid (LPA), therefore LPA formation was used to evaluate the potency of autotaxin inhibitors. The potency of compound was evaluated ex vivo in pooled human plasma.
Various concentrations of compound were incubated with plasma for 2 hours, and the LPA 18:2 and 20:4 concentration was measured by LC/MS/MS. To determine the LPA18:2 or 20:4 concentration in study plasma, a 10× calibration standard of LPA 18:2 or 20:4 were prepared by serial dilution in butyl alcohol: 20000, 10000, 5000, 2000, 1000, 500, 200, 100, 50, 20, and 10 ng/mL. 3 μL of calibration standard solution was added into 27.0 μL of blank plasma in 1.5-mL microcentrifuge tubes to generate 1× calibration standards. The 30.0 μL of standards or study plasma was added into 1.5-mL microcentrifuge tubes. 200 μL of butyl alcohol (containing 25.0 ng/mL LPA17:0 for internal control) was added into each 1.5-mL microcentrifuge tube containing study plasma or calibration standards. After vortexing for 1 minute and centrifuging at 10000 rpm for 10 min, 180 μL of supernatant was transferred into a 96-well plate and the LPA18:2 concentration in the plasma was quantitated using LC/MS/MS together with standards. Briefly, 8 μL of the solutions were injected for LC-MS/MS analysis using an ACQUITY UPLC BEH C18 column (2.1×50 mm, 1.7 μm) with mobile phase A [20 mM NH4OAC in water (0.1% FA)] and phase B [5 mM NH4OAC in water/0.2% FA in ACN=5:95]. Mass spectrometer parameters optimization for LPA18:2 were performed by Deprotonated molecular ion at m/z 433.2 ([M−H]^−) for LPA18:2, 457.2 for LPA20:4 and abundant product ion at m/z 152.8 for both LPA18:2 and LPA20:4 were obtained. Quantitative data were acquired in multiple reaction monitoring (MRM) negative electrospray ionization mode
The inhibition rate of LPA formation was determined by comparing the levels of LPA in treated and non-treated plasma. The data was plotted against the corresponding concentration of compound and the IC50 was calculated through non-linear regression fitting.

[1] = LPA 18:2 by LC/MS/MS, read-out: LPA formation (18:2) (IC50)
[2] = LPA 20:4 by LC/MS/MS, read-out: LPA formation (20:4) (IC50)

SMILES | IC50 [1] [nM] | IC50 [2] [nM]
CCc1nn2c(C)cc(N3CC4(CCN(C(=O)C5CCOCC5)C4)C3)cc2c1N(C)c1nc(-c2ccc(F)cc2)c(C#N)s1 [Example 44, 2-((2-ethyl-7-methyl-5-(6-(tetrahydro-2H-pyran-4-carbonyl)-2,6-diazaspiro[3.4]octan-2-yl)pyrazolo[1,5-a]pyridin-3-yl)(methyl)amino)-4-(4-fluorophenyl)thiazole-5-carbonitrile] | ≤ 100 | ≤ 100
CCc1nn2c(C)cc(N3CC4(CN(C(=O)[C@H](O)CO)C4)C3)cc2c1N(C)c1nc(-c2ccc(F)cc2)c(C#N)s1 (single isomer, unassigned) [Example 75] | 100 to 500 | 100 to 500
CCc1nn2c(C)cc(N3CC4C(C3)C4NC(=O)[C@H]3CCOC3)cc2c1N(C)c1nc(-c2ccc(F)cc2)c(C#N)s1 (stereo partly drawn) [Example 64, (3S)—N-(3-(3-((5-cyano-4-(4-fluorophenyl)thiazol-2-yl)(methyl)amino)-2-ethyl-7-methylpyrazolo[1,5-a]pyridin-5-yl)-3-azabicyclo[3.1.0]hexan-6-yl)tetrahydrofuran-3-carboxamide] | 100 to 500 | 100 to 500
CCc1nn2ccc(N3CCN(CC(=O)N(C)C)CC3)cc2c1N(C)c1nc(-c2ccc(F)cc2)c(C#N)s1 [Example 5, 2-(4-(3-((5-cyano-4-(4-fluorophenyl)thiazol-2-yl)(methyl)amino)-2-ethylpyrazolo[1,5-a]pyridin-5-yl)piperazin-1-yl)-N,N-dimethylacetamide] | ≤ 100 | ≤ 100
CCc1nn2cc(C)c(N3CCN(CC(=O)N4CC(O)C4)CC3)cc2c1N(C)c1nc(-c2ccc(F)cc2)c(C#N)s1 [Example 96, 2-((2-ethyl-5-(4-(2-(3-hydroxyazetidin-1-yl)-2-oxoethyl)piperazin-1-yl)-6-methylpyrazolo[1,5-a]pyridin-3-yl)(methyl)amino)-4-(4-fluorophenyl)thiazole-5-carbonitrile] | ≤ 100 | ≤ 100
CCc1nn2ccc(N3CCC4(CC3)CN(C(=O)N3CC(O)C3)C4)cc2c1N(C)c1nc(-c2ccc(F)cc2)c(C#N)s1 [Example 12, 2-((2-ethyl-5-(2-(3-hydroxyazetidine-1-carbonyl)-2,7-diazaspiro[3.5]nonan-7-yl)pyrazolo[1,5-a]pyridin-3-yl)(methyl)amino)-4-(4-fluorophenyl)thiazole-5-carbonitrile] | ≤ 100 | ≤ 100
CCc1nn2cc(F)c(N3CCC4(CC3)CN(C(=O)N3CC(O)C3)C4)cc2c1N(C)c1nc(-c2ccc(F)cc2)c(C#N)s1 [Example 110, 2-((2-ethyl-6-fluoro-5-(2-(3-hydroxyazetidine-1-carbonyl)-2,7-diazaspiro[3.5]nonan-7-yl)pyrazolo[1,5-a]pyridin-3-yl)(methyl)amino)-4-(4-fluorophenyl)thiazole-5-carbonitrile] | ≤ 100 | ≤ 100
CCc1nn2c(C)cc(N3CCC4(CN(C[C@@H](O)CO)C4)C3)cc2c1N(C)c1nc(-c2ccc(F)cc2)c(C#N)s1 [Example 69, (R)-2-((5-(2-(2,3-dihydroxypropyl)-2,6-diazaspiro[3.4]octan-6-yl)-2-ethyl-7-methylpyrazolo[1,5-a]pyridin-3-yl)(methyl)amino)-4-(4-fluorophenyl)thiazole-5-carbonitrile] | 100 to 500 | 100 to 500
CCc1nn2c(C)cc(N3CCN(CC(=O)N4CC(CO)C4)CC3)cc2c1N(C)c1nc(-c2ccc(F)cc2)c(C#N)s1 [Example 27, 2-((2-ethyl-5-(4-(2-(3-(hydroxymethyl)azetidin-1-yl)-2-oxoethyl)piperazin-1-yl)-7-methylpyrazolo[1,5-a]pyridin-3-yl)(methyl)amino)-4-(4-fluorophenyl)thiazole-5-carbonitrile] | ≤ 100 | ≤ 100
CCc1nn2c(C)cc(N3CCC4(CCN(C)C4=O)CC3)cc2c1N(C)c1nc(-c2ccc(F)cc2)c(C#N)s1 [Example 50, 2-((2-ethyl-7-methyl-5-(2-methyl-1-oxo-2,8-diazaspiro[4.5]decan-8-yl)pyrazolo[1,5-a]pyridin-3-yl)(methyl)amino)-4-(4-fluorophenyl)thiazole-5-carbonitrile] | > 1000 | > 1000
CCc1nn2c(C)cc(N3CCN(CC(=O)N4CC(O)C4)CC3)nc2c1N(C)c1nc(-c2ccc(F)cc2)c(C#N)s1 [Example 95, 2-((2-ethyl-5-(4-(2-(3-hydroxyazetidin-1-yl)-2-oxoethyl)piperazin-1-yl)-7-methylpyrazolo[1,5-a]pyrimidin-3-yl)(methyl)amino)-4-(4-fluorophenyl)thiazole-5-carbonitrile] | > 1000 | > 1000
CCc1nn2c(C)cc(N3CCC4(CN(C[C@H](O)CO)C4)C3)cc2c1N(C)c1nc(-c2ccc(F)cc2)c(C#N)s1 [Example 68, (S)-2-((5-(2-(2,3-dihydroxypropyl)-2,6-diazaspiro[3.4]octan-6-yl)-2-ethyl-7-methylpyrazolo[1,5-a]pyridin-3-yl)(methyl)amino)-4-(4-fluorophenyl)thiazole-5-carbonitrile] | 100 to 500 | 100 to 500
CCc1nn2c(C)cc(N3CC4(CCN(C(=O)C5CN(C)C5)C4)C3)cc2c1N(C)c1nc(-c2ccc(F)cc2)c(C#N)s1 [Example 47, 2-((2-ethyl-7-methyl-5-(6-(1-methylazetidine-3-carbonyl)-2,6-diazaspiro[3.4]octan-2-yl)pyrazolo[1,5-a]pyridin-3-yl)(methyl)amino)-4-(4-fluorophenyl)thiazole-5-carbonitrile] | ≤ 100 | 100 to 500
CCc1nn2c(C)cc(N3CCN(CC(=O)N(C)C)CC3)cc2c1N(C)c1nc(-c2ccc(F)cc2)c(C#N)s1 [Example 24, 2-(4-(3-((5-cyano-4-(4-fluorophenyl)thiazol-2-yl)(methyl)amino)-2-ethyl-7-methylpyrazolo[1,5-a]pyridin-5-yl)piperazin-1-yl)-N,N-dimethylacetamide] | 100 to 500 | ≤ 100
CCc1nn2ccc(N3CCN(CC(=O)N4CC(CO)C4)CC3)cc2c1N(C)c1nc(-c2ccc(F)cc2)c(C#N)s1 [Example 4, 2-((2-ethyl-5-(4-(2-(3-(hydroxymethyl)azetidin-1-yl)-2-oxoethyl)piperazin-1-yl)pyrazolo[1,5-a]pyridin-3-yl)(methyl)amino)-4-(4-fluorophenyl)thiazole-5-carbonitrile] | ≤ 100 | ≤ 100
CCc1nn2c(C)cc(N3CC4(CN(C(=O)C5(O)CCOCC5)C4)C3)cc2c1N(C)c1nc(-c2ccc(F)cc2)c(C#N)s1 [Example 56] | ≤ 100 | ≤ 100
Cc1cc(N2CC3(CN(C(=O)C4CN(C)C4)C3)C2)cc2c(N(C)c3nc(-c4ccc(F)cc4)c(C#N)s3)c(C3CC3)nn12 [Example 84, 2-((2-cyclopropyl-7-methyl-5-(6-(1-methylazetidine-3-carbonyl)-2,6-diazaspiro[3.3]heptan-2-yl)pyrazolo[1,5-a]pyridin-3-yl)(methyl)amino)-4-(4-fluorophenyl)thiazole-5-carbonitrile] | ≤ 100 | ≤ 100
CCn1nc2nc(C)c(N3CC4(CN(C(=O)C(C)(C)O)C4)C3)cc2c1N(C)c1nc(-c2ccc(F)cc2)c(C#N)s1 [Compound 120, 2-((2-ethyl-5-(6-(2-hydroxy-2-methylpropanoyl)-2,6-diazaspiro[3.3]heptan-2-yl)-6-methyl-2H-pyrazolo[3,4-b]pyridin-3-yl)(methyl)amino)-4-(4-fluorophenyl)thiazole-5-carbonitrile] | ≤ 100 | ≤ 100
CCc1nn2cc(F)c(N3CCC4(CN(C(=O)N5CC(O)C5)C4)C3)cc2c1N(C)c1nc(-c2ccc(F)cc2)c(C#N)s1 [Example 111, 2-((2-ethyl-6-fluoro-5-(2-(3-hydroxyazetidine-1-carbonyl)-2,6-diazaspiro[3.4]octan-6-yl)pyrazolo[1,5-a]pyridin-3-yl)(methyl)amino)-4-(4-fluorophenyl)thiazole-5-carbonitrile] | ≤ 100 | ≤ 100
CCn1nc2ncc(N3CCN(CC(=O)N4CC(O)C4)CC3)cc2c1N(C)c1nc(-c2ccc(F)cc2)c(C#N)s1 [Compound 115, 2-((2-ethyl-5-(4-(2-(3-hydroxyazetidin-1-yl)-2-oxoethyl)piperazin-1-yl)-2H-pyrazolo[3,4-b]pyridin-3-yl)(methyl)amino)-4-(4-fluorophenyl)thiazole-5-carbonitrile] | ≤ 100 | ≤ 100
